Results from patent US20240327429A1, “[1,3]Thiazolo[4,5-d]-pyrimidon-7-ones as inhibitors of NOX4” (Boehringer Ingelheim International GmbH, priority 2023, published 2024).
Where “and” joins values, the source holds several entries; their conditions need not be identical. Equal values may be shown once.

Columns and labels:
[1] = test system: human hepatocytes; assay: Evaluation of hepatocyte clearance (metabolic stability); format: in vitro ADME; details: 1 μM test compound, 5% human serum, Table 3
Procedure: The metabolic degradation of the test compound is assayed in a hepatocyte suspension. Hepatocytes (cryopreserved) are incubated in Dulbecco's modified eagle medium (supplemented with […] glucagon/500 mL, 2.5 mg insulin/500 mL and 3.75 mg/500 mL hydrocortisone) containing 5% human serum.
Following a 30 min preincubation in an incubator (37° C., 10% CO2) 5 μl of test compound solution (80 μM; from 2 mM in DMSO stock solution diluted 1:25 with medium) are added into 395 μl hepatocyte suspension (cell density in the range 0.25-5 Mio cells/mL, typically 1 Mio cells/mL; final concentration of test compound 1 μM, final DMSO concentration 0.05%).
The cells are incubated for six hours (incubator, orbital shaker) and samples (25 μl) are taken at 0, 0.5, 1, 2, 4 and 6 hours. Samples are transferred into acetonitrile and pelleted by centrifugation (5 min). The supernatant is transferred to a new 96-deepwell plate, evaporated under nitrogen and resuspended.
Decline of Parent Compound is Analyzed by HPLC-MS/MS.
CLint is Calculated as Follows:
CL_[…]=Dose/AUC=(C0/CD)/(AUD+clast/k)×1000/60. • C0: initial concentration in the incubation [μM], CD: cell density of vital cells [10^6 cells/mL], AUD: area under the data [μM×h], clast: concentration of last data point [μM], • k: slope of the regression line for parent decline [h-1].
The calculated in vitro hepatic intrinsic clearance can be scaled up to the intrinsic in vivo hepatic clearance and used to predict hepatic in vivo blood clearance (CL) by the use of a liver model (well stirred model).
CL_[…]_INVIVO[ml/min/kg]=(CL_[…][μL/min/10^6 cells]×hepatocellularity[10^6 cells/g liver]×liver factor[g/kg bodyweight])/1000
CL[ml/min/kg]=CL_[…]_INVIVO[ml/min/kg]×hepatic blood flow[ml/min/kg]/(CL_[…]_INVIVO[ml/min/kg]+hepatic blood flow[ml/min/kg])

[2] = target: T1, human NOX4 (hNOX4) (Homo sapiens, UniProt Q9NPH5); assay: cell-based
T1 sequence (Q9NPH5 1-578): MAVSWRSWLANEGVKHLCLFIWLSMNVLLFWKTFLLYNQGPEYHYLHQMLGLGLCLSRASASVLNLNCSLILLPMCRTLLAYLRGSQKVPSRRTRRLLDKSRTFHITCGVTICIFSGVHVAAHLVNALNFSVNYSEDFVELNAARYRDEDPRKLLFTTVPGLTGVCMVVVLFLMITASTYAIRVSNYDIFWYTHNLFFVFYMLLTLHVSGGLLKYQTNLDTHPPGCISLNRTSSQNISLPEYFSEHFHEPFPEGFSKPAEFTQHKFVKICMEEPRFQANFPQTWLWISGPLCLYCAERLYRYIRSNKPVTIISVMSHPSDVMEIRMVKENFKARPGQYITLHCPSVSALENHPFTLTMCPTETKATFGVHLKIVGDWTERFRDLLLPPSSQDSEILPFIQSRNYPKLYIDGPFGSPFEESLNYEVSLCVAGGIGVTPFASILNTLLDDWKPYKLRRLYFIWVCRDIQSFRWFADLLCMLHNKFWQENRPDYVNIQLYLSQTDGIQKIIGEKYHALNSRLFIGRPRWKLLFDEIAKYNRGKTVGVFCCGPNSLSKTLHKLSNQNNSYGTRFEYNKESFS
T1 sequence (P13498 2-195 partner limits assumed): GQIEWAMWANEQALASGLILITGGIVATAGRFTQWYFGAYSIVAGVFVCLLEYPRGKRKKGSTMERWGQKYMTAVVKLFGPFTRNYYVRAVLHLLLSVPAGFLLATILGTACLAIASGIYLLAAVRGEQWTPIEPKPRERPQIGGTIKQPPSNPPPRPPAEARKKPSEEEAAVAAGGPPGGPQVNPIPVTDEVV
Procedure: The synthetic gene phNOX4_DNA3_1_Zeo (Accession: AAF68973) is assembled from synthetic oligonucleotides and/or PCR products. The fragment is cloned into pcDNA3.1_Zeo_A011 using NheI and XhoI cloning sites. The plasmid DNA is purified from transformed bacteria and its concentration is determined by UV spectroscopy. The final construct is verified by sequencing. The plasmid is transfected via electroporation (Amaxa electroporation device) in combination with Nucleofector Kit V. Selection of NOX4 overexpressing genes is achieved using selection antibiotic Zeocin.
The inhibitory activity of the example compounds of the invention is determined using the following procedure:
Cells are cultured in the Dulbecco's Modified Eagle Medium (DMEM) media containing 4.5 g/L glucose supplemented with 10% fetal calf serum and 250 μg/ml Zeocin in an incubator at 37° C. with 5% CO2. For the assay, cells are seeded in 384 well plates.
After incubation Lumigen HyPerBlu™ is added and cells are incubated for additional 30 min at 24° C. in a humidified incubator. Next, luminescence is measured using an Envision Multimode Plate reader to determine levels of produced H2O2 in the wells.

O=c1c2scnc2nc(SCc2ccc(Cl)cc2F)n1-c1cc(F)c(O)c(F)c1 [Example 2, 5-((4-Chloro-2-fluorobenzyl)thio)-6-(3,5-difluoro-4-hydroxyphenyl)thiazolo[4,5-d]-pyrimidin-7(6H)-one]
Qh [%] [1]: 53% | IC50 [2]: 39 nM

Cc1cc(Cl)ccc1CSc1nc2ncsc2c(=O)n1-c1cc(F)c(O)c(F)c1 [Example 3]
IC50 [2]: 73 nM

Cc1cc(F)cc(C)c1CSc1nc2ncsc2c(=O)n1-c1cc(F)c(O)c(F)c1 [Example 4]
Qh [%] [1]: 41% | IC50 [2]: 91 nM

O=c1c2scnc2nc(SCc2ccc(Cl)cc2)n1-c1cc(F)c(O)c(F)c1 [Example 5]
Qh [%] [1]: 56% | IC50 [2]: 24 nM

O=c1c2scnc2nc(SCc2ccc(C(F)(F)F)cc2F)n1-c1cc(F)c(O)c(F)c1 [Example 6]
IC50 [2]: 87 nM

O=c1c2scnc2nc(SCc2ccc(C(F)(F)F)cc2)n1-c1cc(F)c(O)c(F)c1 [Example 7]
Qh [%] [1]: 55% | IC50 [2]: 77 nM

O=c1c2scnc2nc(SCc2c(F)cc(F)cc2F)n1-c1cc(F)c(O)c(F)c1 [Example 8]
Qh [%] [1]: 42% | IC50 [2]: 43 nM

Cc1cc(F)ccc1CSc1nc2ncsc2c(=O)n1-c1cc(F)c(O)c(F)c1 [Example 9]
Qh [%] [1]: 65% | IC50 [2]: 29 nM

O=c1c2scnc2nc(SCc2c(F)cc(F)cc2F)n1-c1cc(F)c(O)cc1F [Example 10, 6-(2,5-Difluoro-4-hydroxyphenyl)-5-((2,4,6-trifluorobenzyl)thio)thiazolo[4,5-d]pyrimidin-7(6H)-one]
Qh [%] [1]: 72% | IC50 [2]: 27 nM

O=c1c2scnc2nc(SCc2c(F)cc(F)cc2F)n1-c1ccc(O)c(F)c1 [Example 11]
Qh [%] [1]: 79% | IC50 [2]: 42 nM

O=c1c2scnc2nc(SCc2c(F)cc(F)cc2F)n1-c1ccc(O)c(F)c1F [Example 12]
Qh [%] [1]: 77% | IC50 [2]: 51 nM

O=c1c2scnc2nc(SCc2c(F)cc(F)cc2F)n1-c1c(F)cc(O)cc1F [Example 13]
IC50 [2]: 61 nM

O=c1c2scnc2nc(SCc2c(F)cc(F)cc2F)n1-c1ccc(O)cc1F [Example 14]
Qh [%] [1]: 73% | IC50 [2]: 38 nM

O=c1c2scnc2nc(SCc2c(F)cc(F)cc2F)n1-c1ccc(O)cc1 [Example 15]
Qh [%] [1]: 61% | IC50 [2]: 33 nM

O=c1c2scnc2nc(SCc2c(F)cc(F)cc2F)n1-c1ccc(O)c(Cl)c1 [Example 16]
Qh [%] [1]: 73% | IC50 [2]: 367 nM

O=c1c2scnc2nc(SCc2c(F)cc(F)cc2F)n1-c1ccc(O)cc1Cl [Example 17]
Qh [%] [1]: 70% | IC50 [2]: 314 nM

N#Cc1cc(-n2c(SCc3c(F)cc(F)cc3F)nc3ncsc3c2=O)ccc1O [Example 18]
Qh [%] [1]: 48% | IC50 [2]: 117 nM

O=c1c2scnc2nc(SCc2c(F)cc(F)cc2F)n1-c1ccc(O)cn1 [Example 19]
Qh [%] [1]: 52%

O=c1c2scnc2nc(SCc2c(F)cc(F)cc2F)n1-c1cc(F)c(O)cn1 [Example 20]
Qh [%] [1]: 51% | IC50 [2]: 127 nM

O=c1c2scnc2nc(SCc2c(F)cc(F)cc2F)n1-c1ncc(O)cn1 [Example 21, 6-(5-Hydroxypyrimidin-2-yl)-5-((2,4,6-trifluorobenzyl)thio)thiazolo[4,5-d]pyrimidin-7(6H)-one]
Qh [%] [1]: 27% | IC50 [2]: 174 nM

O=c1c2scnc2nc(SCc2ccc(Cl)cc2F)n1-c1ccc(O)nc1 [Example 22, 5-((4-Chloro-2-fluorobenzyl)thio)-6-(6-hydroxypyridin-3-yl)thiazolo[4,5-d]pyrimidin-7(6H)-one]
Qh [%] [1]: 45% | IC50 [2]: 69 nM

Cc1cc(Cl)ccc1CSc1nc2ncsc2c(=O)n1-c1ccc(O)nc1 [Example 23]
Qh [%] [1]: 55% | IC50 [2]: 96 nM

Cc1cc(F)cc(C)c1CSc1nc2ncsc2c(=O)n1-c1ccc(O)nc1 [Example 24]
Qh [%] [1]: 45% | IC50 [2]: 98 nM

O=c1c2scnc2nc(SCc2ccc(Cl)cc2)n1-c1ccc(O)nc1 [Example 25]
Qh [%] [1]: 41% | IC50 [2]: 100 nM and 101 nM

O=c1c2scnc2nc(SCc2ccc(C(F)(F)F)cc2F)n1-c1ccc(O)nc1 [Example 26]
Qh [%] [1]: 41% | IC50 [2]: 120 nM

O=c1c2scnc2nc(SCc2ccc(C(F)(F)F)cc2)n1-c1ccc(O)nc1 [Example 27]
Qh [%] [1]: 37% | IC50 [2]: 135 nM

O=c1c2scnc2nc(SCc2c(F)cc(F)cc2F)n1-c1ccc(O)nc1 [Example 28]
Qh [%] [1]: 29% | IC50 [2]: 136 nM

Cc1cc(F)ccc1CSc1nc2ncsc2c(=O)n1-c1ccc(O)nc1 [Example 29]
Qh [%] [1]: 54% | IC50 [2]: 150 nM and 145 nM

O=c1c2scnc2nc(SCc2ccc(F)cc2)n1-c1ccc(O)nc1 [Example 30]
Qh [%] [1]: 22% | IC50 [2]: 539 nM

O=c1c2scnc2nc(SCc2c(F)cc(F)cc2F)n1-c1cnc(O)c(F)c1 [Example 31, 6-(5-Fluoro-6-hydroxypyridin-3-yl)-5-((2,4,6-trifluorobenzyl)thio)thiazolo[4,5-d]-pyrimidin-7(6H)-one]
Qh [%] [1]: 14% | IC50 [2]: 60 nM

O=c1c2scnc2nc(SCc2ccc(C(F)(F)F)cc2)n1-c1cnc(O)c(F)c1 [Example 32, 6-(5-Fluoro-6-hydroxypyridin-3-yl)-5-((4-(trifluoromethyl)benzyl)thio)thiazolo[4,5-d]pyrimidin-7(6H)-one]
Qh [%] [1]: 15% | IC50 [2]: 40 nM

O=c1c2scnc2nc(SCc2ccc(Cl)cc2)n1-c1cnc(O)c(F)c1 [Example 33]
Qh [%] [1]: 15% | IC50 [2]: 29 nM

O=c1c2scnc2nc(SCc2ccc(Br)cc2F)n1-c1cnc(O)c(F)c1 [Example 34]
Qh [%] [1]: 8% | IC50 [2]: 29 nM

O=c1c2scnc2nc(SCc2ccc(Cl)cc2F)n1-c1cnc(O)c(F)c1 [Example 35]
Qh [%] [1]: 15% | IC50 [2]: 33 nM

Cc1cc(F)ccc1CSc1nc2ncsc2c(=O)n1-c1cnc(O)c(F)c1 [Example 36]
Qh [%] [1]: 34% | IC50 [2]: 34 nM

Cc1cc(Cl)ccc1CSc1nc2ncsc2c(=O)n1-c1cnc(O)c(F)c1 [Example 37]
Qh [%] [1]: 16% | IC50 [2]: 34 nM

O=c1c2scnc2nc(SCc2ccc(F)cc2F)n1-c1cnc(O)c(F)c1 [Example 38]
Qh [%] [1]: 11% | IC50 [2]: 48 nM

O=c1c2scnc2nc(SCc2ccc(Cl)cc2Cl)n1-c1cnc(O)c(F)c1 [Example 39]
Qh [%] [1]: 26% | IC50 [2]: 56 nM

Cc1c(F)cccc1CSc1nc2ncsc2c(=O)n1-c1cnc(O)c(F)c1 [Example 40]
IC50 [2]: 59 nM

O=c1c2scnc2nc(SCc2c(F)cc(F)cc2Cl)n1-c1cnc(O)c(F)c1 [Example 41]
Qh [%] [1]: 26% | IC50 [2]: 60 nM

O=c1c2scnc2nc(SCc2ccc(C(F)(F)F)cc2F)n1-c1cnc(O)c(F)c1 [Example 42]
Qh [%] [1]: 14% | IC50 [2]: 62 nM

Cc1cc(F)cc(C)c1CSc1nc2ncsc2c(=O)n1-c1cnc(O)c(F)c1 [Example 43]
Qh [%] [1]: 37% | IC50 [2]: 63 nM

O=c1c2scnc2nc(SCc2ccc(F)cc2Br)n1-c1cnc(O)c(F)c1 [Example 44]
Qh [%] [1]: 29% | IC50 [2]: 63 nM

O=c1c2scnc2nc(SCc2c(F)ccc(F)c2F)n1-c1cnc(O)c(F)c1 [Example 45]
Qh [%] [1]: 23% | IC50 [2]: 113 nM

O=c1c2scnc2nc(SCc2ccc(C(F)(F)F)cc2Cl)n1-c1cnc(O)c(F)c1 [Example 46]
Qh [%] [1]: 21% | IC50 [2]: 130 nM

Cc1cc(F)cc(C)c1CSc1nc2ncsc2c(=O)n1-c1ccc(O)nn1 [Example 63]
IC50 [2]: 126 nM

Cc1cc(F)ccc1CSc1nc2ncsc2c(=O)n1-c1ccc(O)nn1 [Example 68]
IC50 [2]: 143 nM
